Measured values reported in patent publication US20260356856A1, “KRAS G12S AND G12C INHIBITORS” (MIRATI THERAPEUTICS, INC., priority 2023, published 2026).

Experiments:
[1] = target: T1, KRas-mediated phosphorylation of ERK in H358 cells (Homo sapiens, UniProt P01116, G12C); test: Inhibition of KRas-mediated phosphorylation of ERK (HTRF), H358 cells; format: cell-based; conditions: HTRF pERK, 3 h incubation
T1 construct: pERK HTRF read-out

[2] = target: T2, KRas-mediated phosphorylation of ERK in A549 cells (Homo sapiens, UniProt P01116, G12S); test: Inhibition of KRas-mediated phosphorylation of ERK (HTRF), A549 cells; format: cell-based; conditions: HTRF pERK, 3 h incubation
T2 construct: pERK HTRF read-out
T2 sequence (P01116 1-188 isoform P01116-2 G12S): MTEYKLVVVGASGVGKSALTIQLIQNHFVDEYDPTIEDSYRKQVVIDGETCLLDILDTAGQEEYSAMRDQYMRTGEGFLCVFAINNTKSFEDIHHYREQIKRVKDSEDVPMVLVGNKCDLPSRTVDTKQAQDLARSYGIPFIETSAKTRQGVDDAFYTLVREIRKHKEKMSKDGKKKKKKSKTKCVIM

KRas WT = target: T3, KRas WT (Homo sapiens, UniProt P01116); test: KRas binding assay, TR-FRET displacement of Cy5 labelled tracer; conditions: 60-minute incubation at room temperature, 1% DMSO, pH 7.5
T3 construct: Biotinylated KRas (corresponding to amino acids 1-169, produced at Accelegan Inc.); biotin (biotinylated); purchased Accelegan Inc
T3 sequence (P01116 1-169 isoform P01116-2): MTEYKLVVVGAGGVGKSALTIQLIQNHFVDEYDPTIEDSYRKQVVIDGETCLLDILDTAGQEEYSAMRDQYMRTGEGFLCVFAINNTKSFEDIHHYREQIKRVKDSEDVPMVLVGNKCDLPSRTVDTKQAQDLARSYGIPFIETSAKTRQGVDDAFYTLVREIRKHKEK
How it was run: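 Compound competes with tracer for biotin-labelled KRas (amino acids 1-169) bound to terbium-streptavidin. Incubation runs 60 minutes at room temperature, final DMSO 1%. IC50 values derive from a 4-parameter fit.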

KRas G12C = target: T4, KRas G12C (Homo sapiens, UniProt P01116, G12C); test: as above; conditions: 60-minute incubation at room temperature, 1% DMSO, pH 7.5
T4 construct: Biotinylated KRas (corresponding to amino acids 1-169, produced at Accelegan Inc.); biotin (biotinylated); purchased Accelegan Inc
T4 sequence (P01116 1-169 isoform P01116-2 G12C): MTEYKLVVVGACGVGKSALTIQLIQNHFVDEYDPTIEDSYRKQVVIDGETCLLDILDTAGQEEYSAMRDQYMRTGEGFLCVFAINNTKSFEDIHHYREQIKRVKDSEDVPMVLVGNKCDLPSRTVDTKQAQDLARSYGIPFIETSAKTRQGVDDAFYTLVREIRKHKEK
How it was run: (§1)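 TR-FRET tracer-displacement readout after 60 min at room temperature, using KRas residues 1-169 (biotinylated) with terbium streptavidin and a Cy5 tracer. Buffer: 50 mM HEPES pH 7.5, 5 mM MgCl2, 0.005% Tween-20, 1 mM DTT, 1% DMSO final. IC50 from 4-parameter fit of POC data.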

KRas G12S = target: T5, KRas G12S (Homo sapiens, UniProt P01116, G12S); test: as above; conditions: 60-minute incubation at room temperature, 1% DMSO, pH 7.5
T5 construct: Biotinylated KRas (corresponding to amino acids 1-169, produced at Accelegan Inc.); biotin (biotinylated); purchased Accelegan Inc
T5 sequence (P01116 1-169 isoform P01116-2 G12S): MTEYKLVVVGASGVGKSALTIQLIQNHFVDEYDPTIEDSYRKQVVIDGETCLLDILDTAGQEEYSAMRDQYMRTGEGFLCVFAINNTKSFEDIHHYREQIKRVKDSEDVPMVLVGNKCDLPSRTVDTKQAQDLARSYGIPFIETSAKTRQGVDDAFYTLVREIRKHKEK
How it was run: as §1

[3] = target: T6, KRas-mediated phosphorylation of ERK in MKN1 cells (Homo sapiens, UniProt P01116); test: Inhibition of KRas-mediated phosphorylation of ERK (HTRF), MKN1 cells; format: cell-based; conditions: MKN1 cells (KRas WT); HTRF pERK; 3 h incubation
T6 construct: pERK HTRF read-out
T6 sequence (P01116 1-188 isoform P01116-2): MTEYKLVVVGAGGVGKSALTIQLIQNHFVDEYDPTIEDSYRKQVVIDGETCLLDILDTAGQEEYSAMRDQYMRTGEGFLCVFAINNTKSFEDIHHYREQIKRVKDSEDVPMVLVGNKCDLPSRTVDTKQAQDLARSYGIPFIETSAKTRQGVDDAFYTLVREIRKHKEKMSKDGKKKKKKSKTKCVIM
Description: Inhibition of KRas Phosphorylation of ERK (HTRF) by Exemplary Compounds of Formula (Ia) or (Ib)
Cisbio HTRF Advanced pERK Assay Catalog #64AERPEH • Cells: MKN1, PSN1 • Procedure: • 1. Day 1: Seed 6,000 cells/well −25 μl/well in 384-well white solid bottom plate; RPM1_10% FBS. Incubate overnight at 37 °C/5% CO2. • 2.

T1 sequence (P01116 1-188 isoform P01116-2 G12C): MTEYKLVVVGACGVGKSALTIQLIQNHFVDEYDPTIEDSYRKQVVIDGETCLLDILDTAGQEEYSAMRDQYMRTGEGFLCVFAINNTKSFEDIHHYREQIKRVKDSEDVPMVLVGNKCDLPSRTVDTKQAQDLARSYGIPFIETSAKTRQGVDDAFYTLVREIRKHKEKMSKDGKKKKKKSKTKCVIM

SMILES	IC50 [1]	IC50 [2]	IC50 (KRas WT)	IC50 (KRas G12C)	IC50 (KRas G12S)	IC50 [3]
CCc1c(F)ccc2cc(O)cc(-c3ncc4c(N5CCCC(C(=O)n6ccc(C)n6)CC5)nc(OCC5(CN(C)C)CC5)nc4c3F)c12 (stereo not drawn) [Example 167, (1-(2-((1-((dimethylamino)methyl)cyclopropyl)methoxy)-7-(8-ethyl-7-fluoro-3-hydroxynaphthalen-1-yl)-8-fluoropyrido[4,3-d]pyrimidin-4-yl)azepan-4-yl)(3-methyl-1H-pyrazol-1-yl)methanone]	5100 nM	326 nM	528 nM	94 nM	29 nM	3050 nM
CCc1c(F)ccc2cc(O)cc(-c3ncc4c(N5CC[C@@H](C(=O)n6ccc(C)n6)[C@H](C)C5)nc(OC[C@@]56CCCN5C[C@H](F)C6)nc4c3F)c12 [Example 71, ((3S,4R)-1-(7-(8-ethyl-7-fluoro-3-hydroxynaphthalen-1-yl)-8-fluoro-2-(((2R,7aS)-2-fluorotetrahydro-1H-pyrrolizin-7a(5H)-yl)methoxy)pyrido[4,3-d]pyrimidin-4-yl)-3-methylpiperidin-4-yl)(3-methyl-1H-pyrazol-1-yl)methanone]	930 nM	2030 nM	2090 nM	1690 nM	2500 nM	8470 nM
CCc1c(F)ccc2cc(O)cc(-c3ncc4c(N5CCC(C)(C(=O)n6ccc(C)n6)CC5)nc(OC[C@@]56CCCN5C[C@H](F)C6)nc4c3F)c12 [Example 83, (1-(7-(8-ethyl-7-fluoro-3-hydroxynaphthalen-1-yl)-8-fluoro-2-(((2R,7aS)-2-fluorotetrahydro-1H-pyrrolizin-7a(5H)-yl)methoxy)pyrido[4,3-d]pyrimidin-4-yl)-4-methylpiperidin-4-yl)(3-methyl-1H-pyrazol-1-yl)methanone]	1410 nM	1170 nM	790 nM	107 nM	402 nM	2990 nM
CCc1c(F)ccc2cc(O)cc(-c3ncc4c(N5CCN(C(=O)n6nccn6)CC5)nc(OC[C@@]56CCCN5C[C@H](F)C6)nc4c3F)c12 (single isomer, unassigned) [Example 152]	83 nM	2180 nM	39 nM	73 nM	84 nM	251 nM
CN(CCN(C)c1nc(OC[C@@]23CCCN2C[C@H](F)C3)nc2c(F)c(-c3ccc(F)c4sc(N)c(C#N)c34)c(Cl)cc12)C(=O)n1nccn1 (single isomer, unassigned) [Example 202]	23 nM	1480 nM	4 nM	< 2 nM	2 nM	142 nM
Cc1ccn(C(=O)CCCN(C)c2nc(OC[C@@]34CCCN3C[C@H](F)C4)nc3c(F)c(-c4ccc(F)c5sc(N)c(C#N)c45)c(Cl)cc23)n1 [Example 141, 2-amino-4-(6-chloro-8-fluoro-2-(((2R,7aS)-2-fluorotetrahydro-1H-pyrrolizin-7a(5H)-yl)methoxy)-4-(methyl (4-(3-methyl-1H-pyrazol-1-yl)-4-oxobutyl)amino)quinazolin-7-yl)-7-fluorobenzo[b]thiophene-3-carbonitrile]	26 nM	10 nM	11 nM	< 2 nM	< 2 nM	363 nM

Second part, the molecule after the results:

IC50 [1]	IC50 [2]	IC50 (KRas WT)	IC50 (KRas G12C)	IC50 (KRas G12S)	IC50 [3]	SMILES
1500 nM	4350 nM	91 nM	134 nM	123 nM	394 nM	CCc1c(F)ccc2cc(O)cc(-c3ncc4c(N(C)CCCS(=O)(=O)n5cccn5)nc(OC[C@@]56CCCN5C[C@H](F)C6)nc4c3F)c12 [Example 230, 4-(4-((3-((1H-pyrazol-1-yl)sulfonyl)propyl)(methyl)amino)-8-fluoro-2-(((2R,7aS)-2-fluorotetrahydro-1H-pyrrolizin-7a(5H)-yl)methoxy)pyrido[4,3-d]pyrimidin-7-yl)-5-ethyl-6-fluoronaphthalen-2-ol]
296 nM	6880 nM	9 nM	5 nM	7 nM	763 nM	COC(=O)CCCN(C)c1nc(OC[C@@]23CCCN2C[C@H](F)C3)nc2c(F)c(-c3ccc(F)c4sc(N)c(C#N)c34)c(Cl)cc12 [Example 217, methyl 4-((7-(2-amino-3-cyano-7-fluorobenzo[b]thiophen-4-yl)-6-chloro-8-fluoro-2-(((2R,7aS)-2-fluorotetrahydro-1H-pyrrolizin-7a(5H)-yl)methoxy)quinazolin-4-yl)(methyl)amino)butanoate]
1480 nM	101 nM	148 nM	129 nM	68 nM	1030 nM	CCc1c(F)ccc2cc(O)cc(-c3ncc4c(N5CC(CC(=O)N(C)C(C)=O)C5)nc(OC[C@@]56CCCN5C[C@H](F)C6)nc4c3F)c12 [Example 276, N-acetyl-2-(1-(7-(8-ethyl-7-fluoro-3-hydroxynaphthalen-1-yl)-8-fluoro-2-(((2R,7aS)-2-fluorotetrahydro-1H-pyrrolizin-7a(5H)-yl)methoxy)pyrido[4,3-d]pyrimidin-4-yl)azetidin-3-yl)-N-methylacetamide]
13 nM	2730 nM	30 nM	6 nM	18 nM	237 nM	CCc1c(F)ccc2cc(O)cc(-c3ncc4c(N(C)CCNC(=O)n5cncn5)nc(OC[C@@]56CCCN5C[C@H](F)C6)nc4c3F)c12 [Example 225, N-(2-((7-(8-ethyl-7-fluoro-3-hydroxynaphthalen-1-yl)-8-fluoro-2-(((2R,7aS)-2-fluorotetrahydro-1H-pyrrolizin-7a(5H)-yl)methoxy)pyrido[4,3-d]pyrimidin-4-yl)(methyl)amino)ethyl)-1H-1,2,4-triazole-1-carboxamide]
2 nM	249 nM	11 nM	< 2 nM	7 nM	223 nM	CN(CCNC(=O)n1ccnn1)c1nc(OC[C@@]23CCCN2C[C@H](F)C3)nc2c(F)c(-c3ccc(F)c4sc(N)c(C#N)c34)c(Cl)cc12 [Example 249, N-(2-((7-(2-amino-3-cyano-7-fluorobenzo[b]thiophen-4-yl)-6-chloro-8-fluoro-2-(((2R,7aS)-2-fluorotetrahydro-1H-pyrrolizin-7a(5H)-yl)methoxy)quinazolin-4-yl)(methyl)amino)ethyl)-1H-1,2,3-triazole-1-carboxamide]
370 nM	271 nM	35 nM	3 nM	12 nM	844 nM	CN(CCCC(=O)Oc1c(F)cccc1F)c1nc(OC[C@@]23CCCN2C[C@H](F)C3)nc2c(F)c(-c3ccc(F)c4sc(N)c(C#N)c34)c(Cl)cc12 [Example 265, 2,6-difluorophenyl 4-((7-(2-amino-3-cyano-7-fluorobenzo[b]thiophen-4-yl)-6-chloro-8-fluoro-2-(((2R,7aS)-2-fluorotetrahydro-1H-pyrrolizin-7a(5H)-yl)methoxy)quinazolin-4-yl)(methyl)amino)butanoate]
8 nM	3 nM	4 nM	5 nM	2 nM	19 nM	CC(=O)N(C)C(=O)[C@H]1CCCN(c2nc(OC[C@@]34CCCN3C[C@H](F)C4)nc3c(F)c(-c4ccc(F)c5sc(N)c(C#N)c45)c(Cl)cc23)CC1 (atropisomer, axis not shown; (aS)) [Example 256, (S)—N-acetyl-1-((S)-7-(2-amino-3-cyano-7-fluorobenzo[b]thiophen-4-yl)-6-chloro-8-fluoro-2-(((2R,7aS)-2-fluorotetrahydro-1H-pyrrolizin-7a(5H)-yl)methoxy)quinazolin-4-yl)-N-methylazepane-4-carboxamide]
428 nM	107 nM	9 nM	17 nM	14 nM	102 nM	CCc1c(F)ccc2cc(O)cc(-c3ncc4c(NCC5CC(C(=O)N(C)C(C)=O)C5)nc(OC[C@@]56CCCN5C[C@H](F)C6)nc4c3F)c12 (stereo partly drawn) [Example 280, N-acetyl-3-(((7-(8-ethyl-7-fluoro-3-hydroxynaphthalen-1-yl)-8-fluoro-2-(((2R,7aS)-2-fluorotetrahydro-1H-pyrrolizin-7a(5H)-yl)methoxy)pyrido[4,3-d]pyrimidin-4-yl)amino)methyl)-N-methylcyclobutane-1-carboxamide]
8 nM	1680 nM	37 nM	< 2 nM	34 nM	357 nM	CCc1c(F)ccc2cc(O)cc(-c3ncc4c(N(C)CCNC(=O)n5ccnn5)nc(OC[C@@]56CCCN5C[C@H](F)C6)nc4c3F)c12 [Example 250, N-(2-((7-(8-ethyl-7-fluoro-3-hydroxynaphthalen-1-yl)-8-fluoro-2-(((2R,7aS)-2-fluorotetrahydro-1H-pyrrolizin-7a(5H)-yl)methoxy)pyrido[4,3-d]pyrimidin-4-yl)(methyl)amino)ethyl)-1H-1,2,3-triazole-1-carboxamide]
